± gives the expanded uncertainty stated by the source.
Columns and labels:
[1] = Crystal
[2] = Molar enthalpy of transition or fusion; conditions: Crystal; DSC

- mass density ([1]; 298.15 K, 101.33 kPa, Buoyancy - hydrostatic balance): 1594.7 ± 2.1 kg/m3
- Normal melting temperature ([1]; DTA): 201.56 ± 1.1 °C
- Molar enthalpy of transition or fusion [2]: 8.27 ± 0.263 kcal/mol
SMILES: O=C1NC(=O)c2cc([N+](=O)[O-])ccc21 [4-nitrophthalimide]

— the NIST ThermoML archive (doi:10.1021/acs.jced.6b00230)
